In patent publication EP1369117A1, “Use of derivatives and precursors of oxaziridine in the treatment of cancerous tumours” (priority 2002, dated 2003):
≈ marks a conversion by molar mass, not a printed value. Read-outs that look alike come from different tables or passages of the source.

Key:
Type in all cases: cell-based
[1] = system: B16 (Lignée de mélanome murin); test: MTT test, anti-tumour activity on B16 cell line; conditions: for IC50: Mus musculus, B16, light or radiation study
Protocol: (§1) Différents composés de l'invention ont été testés pour leurs activités anti-tumorales sur différentes lignées tumorales murines ou humaines et comparés à des produits anti-tumoraux connus.
(§2) Les lignées cellulaires testées sont la lignée lymphoblastoïde murine P388, la lignée de mélanome murin B16, la lignée de kératinocytes humains HaCaT, la lignée de mélanome humain HBL.
(§3) L'action anti-tumorale des composés de l'invention a été testée sur ces différentes lignées après différentes durées d'incubation (30 minutes, 2 heures, 3 heures, 48 heures ou 72 heures).
(§4) En outre, différents types d'irradiation, différentes durées d'irradiation (30 minutes ou 60 minutes) ainsi que différentes durées d'incubation ont été testés.
(§5) Les différents résultats sont présentés dans le tableau 1 annexé.

[2] = system: P388 (Lignée lymphoblastoïde murine); test: MTT test, anti-tumour activity on P388 cell line; conditions: for IC50: Mus musculus
Protocol: as §1, §2, §3, §4, §5

[3] = system: HaCaT (Lignée de kératinocytes humains); test: MTT test, anti-tumour activity on HaCaT cell line; conditions: Homo sapiens, rest 24 h, incubation 3 h, 4°C, incubation before MTT test 45 h, read-out: Dose efficace DL50
Protocol: as §1, §2, §3, §4, §5

[4] = system: HBL (Lignée de mélanome humain); test: MTT test, anti-tumour activity on HBL cell line; conditions: Homo sapiens, rest 24 h, incubation 3 h, 4°C, incubation before MTT test 45 h, read-out: Dose efficace DL50
Protocol: as §1, §2, §3, §4, §5

[5] = B16, rest after culture 24 h, incubation 2 h, no irradiation, incubation before MTT test 72 h, read-out: Dose efficace DL50
[6] = B16, rest after culture 24 h, incubation 72 h, no irradiation, incubation before MTT test 0 h, read-out: Dose efficace DL50
[7] = light or radiation study, P388, rest after culture 24 h, incubation 2 h, no irradiation, incubation before MTT test 48 h, read-out: Dose efficace DL50
[8] = P388, rest after culture 24 h, incubation 48 h, no irradiation, incubation before MTT test 0 h
[9] = read-out: Dose efficace DL50, B16, rest after culture 24 h, incubation 2 h, no irradiation, incubation before MTT test 72 h
[10] = read-out: Dose efficace DL50, B16, rest after culture 24 h, incubation 72 h, no irradiation, incubation before MTT test 0 h
[11] = P388, light or radiation study, read-out: Dose efficace DL50, P388, rest after culture 24 h, incubation 2 h, no irradiation, incubation before MTT test 48 h
[12] = P388, light or radiation study, read-out: Dose efficace DL50, P388, rest after culture 24 h, incubation 48 h, no irradiation, incubation before MTT test 0 h
[13] = B16, rest after culture 24 h, incubation 2 h, no irradiation, incubation before MTT test 72 h
[14] = B16, rest after culture 24 h, incubation 72 h, no irradiation, incubation before MTT test 0 h
[15] = P388, rest after culture 24 h, incubation 2 h, no irradiation, incubation before MTT test 48 h
[16] = light or radiation study, UVA Cléo + filtre UVB + polyéthylène, irradiation 60 min

O=C1C[N+]([O-])=C(c2ccccc2)c2cc(Cl)ccc2N1 [démoxépan, demoxepan]
IC50 [1, 5]: > 100 µg/mL | IC50 [1, 6]: > 100 µg/mL | IC50 [2, 7]: > 100 µg/mL | Dose efficace DL50 [2, 8]: > 100 µg/mL

O=C1CN2OC2(c2ccccc2)c2cc(Cl)ccc2N1 (centres unmarked) [oxaziridine du démoxépan, oxaziridine de demoxepan]
IC50 [1, 9]: 22 µg/mL (≈ 76.7 µM) | IC50 [1, 10]: 11 µg/mL (≈ 38.4 µM) | IC50 [2, 11]: 62 µg/mL (≈ 216 µM) | IC50 [2, 12]: 22 µg/mL (≈ 76.7 µM)

CNC1=Nc2ccccc2C(c2ccccc2)=[N+]([O-])C1 [deschlordiazépoxide, deschlorodiazépoxide]
Dose efficace DL50 [1, 13]: > 100 µg/mL | Dose efficace DL50 [1, 14]: > 100 µg/mL | Dose efficace DL50 [2, 15]: > 100 µg/mL | Dose efficace DL50 [2, 8]: > 100 µg/mL

oxaziridine de deschlorodiazépoxide [oxaziridine du deschlordiazépoxide]
Dose efficace DL50 [1, 13]: 14 µg/ml μg/ml | Dose efficace DL50 [1, 14]: 8 µg/ml μg/ml | Dose efficace DL50 [2, 15]: 22 µg/mL | Dose efficace DL50 [2, 8]: 12 µg/mL

CNC1=Nc2ccc(Cl)cc2C(c2ccccc2)=[N+]([O-])C1 [chlordiazépoxide, chlorodiazépoxide, reference compound]
IC50 ([1]; B16, rest 24 h, incubation 30 min, lampe de Wood, RT, irradiation 30 min, no time before washing (---), incubation before MTT test 72 h, read-out: Dose efficace DL50): 7 µg/mL (≈ 23.4 µM) | IC50 ([1]; B16, rest 24 h, incubation 30 min, lampe de Wood, RT, irradiation 30 min, time before washing 1 h, incubation before MTT test 72 h, read-out: Dose efficace DL50): 9 µg/mL (≈ 30 µM) | IC50 [1, 5]: > 100 µg/mL | IC50 [1, 6]: > 100 µg/mL | IC50 ([3]; light or radiation study, UVA Cléo + filtre UVB + polyéthylène, irradiation 30 min): 36 µg/mL | IC50 [3, 16]: 24 µg/mL | IC50 ([3]; no light source (---), 30 min): > 100 µg/mL | IC50 [2, 7]: > 100 µg/mL | Dose efficace DL50 [2, 8]: > 100 µg/mL | IC50 [4, 16]: 12 µg/mL | IC50 ([4]; no light source (---), 30 min): > 100 µg/mL

CNC1=Nc2ccc(Cl)cc2C2(c3ccccc3)ON2C1 (centres unmarked) [oxaziridine du chlordiazépoxide, oxaziridine de chlorodiazépoxide]
IC50 [1, 9]: 32 µg/mL (≈ 107 µM) | IC50 [1, 10]: 15 µg/mL (≈ 50 µM) | IC50 [2, 11]: 41 µg/mL (≈ 137 µM) | IC50 [2, 12]: 34 µg/mL (≈ 113 µM)

N[C@@H](Cc1ccc(N(CCCl)CCCl)cc1)C(=O)O [Melphalan, reference compound]
Dose efficace DL50 [1]: 10 µg/mL | IC50 ([1]; read-out: Dose efficace DL50): 12 µg/mL (≈ 39.3 µM) | Dose efficace DL50 [2]: 7 µg/mL | IC50 ([2]; P388, light or radiation study, read-out: Dose efficace DL50): 9 µg/mL (≈ 29.5 µM)
